Laboratory results as given in EPA's ToxValDB 9.5 (doi:10.2903/j.efsa.2006.58r).

How the values were obtained:
Anas platyrhynchos = settings: acute; oral; unspecified; mortality
Apis mellifera = settings: acute, mortality
Pimephales promelas = settings: chronic/long-term; duration: 32 days
Oncorhynchus mykiss = settings: acute; duration: 96 hours; mortality
Daphnia magna = settings: chronic/long-term; duration: 21 days
Bibionidae = settings: chronic/long-term; duration: 40 days
Pontoscolex corethrurus = settings: for NOEC: chronic/long-term
Plant = settings: not reported; no effects
Typhlodromus pyri = assay: LR50; higher = less toxic; settings: not reported; mortality
Aphidius rhopalosiphi = assay: LR50; higher = less toxic; settings: not reported; mortality

Question: Which results are given for `COc1cc(C)c(C(=O)c2c(OC)ccc(Br)c2C)c(OC)c1OC` [Metrafenone]?
Answer: LD50 (Anas platyrhynchos): > 2020 mg/kg-day; LD50 (Apis mellifera; dermal): > 100 µg/piece; LD50 (Apis mellifera; oral, unspecified): > 114 µg/piece; NOEC (Pimephales promelas): 0.228 mg/L; LC50 (Oncorhynchus mykiss): > 0.82 mg/L; NOEC (Colinus virginianus; reproduction developmental): 125 mg/kg-day; NOEC (Colinus virginianus; short-term, oral, diet): > 948 mg/kg-day; NOEC (Daphnia magna): 0.225 mg/L; LD50 (Rattus norvegicus; acute, oral, mortality): > 5000 mg/kg-day; NOAEL (Rattus norvegicus; chronic, duration: 2 years, oral, histopathology: neoplastic): 25 mg/kg-day; NOAEL (Rattus norvegicus; reproduction developmental): 811 mg/kg-day; NOAEL (Rattus norvegicus; subchronic, duration: 13 weeks, oral, organ weight): 43 mg/kg-day; NOEC (Bibionidae): 1 mg/L; LC50 (Pontoscolex corethrurus; acute, mortality): > 250 mg/kg; NOEC (Pontoscolex corethrurus): 10.4 mg/kg; NOEC (Pontoscolex corethrurus; reproduction): 3 mg/kg; LEL (Plant): 300 g/ha; LR50 (Typhlodromus pyri): > 500 g/ha; LR50 (Aphidius rhopalosiphi): > 300 g/ha
